In patent US9708314B2, “Heterocyclic amide compound” (NISSAN CHEMICAL INDUSTRIES, LTD., priority 2013, dated 2017):

Legend:
Format in all cases: in vivo
[1] = test system: Echinochloa oryzacola Vasing.; assay: Test Example 2: herbicidal activity, application during weed generation in submerged conditions; settings: Eighteenth Table; application herbicide amount 320 g/ha
Procedure, shortened: (§1)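 Seeds were sown together in alluvial soil kept under 4 cm of water and grown at 25 °C to 30 °C. Once plants reached the one- to two-leaf stage, the diluted emulsion was applied to the water surface at a predetermined g/ha amount, and effects were rated 0–5 after three weeks.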

Scirpus juncoides [2] = assay: as above; settings: Eighteenth Table; application herbicide amount 320 g/ha
Procedure, shortened: as §1

Monochoria vaginalis [3] = assay: as above; settings: Eighteenth Table; application herbicide amount 320 g/ha
Procedure, shortened: as §1

[4] = test system: transplanted Oryza sativa; assay: Test Example 1: effect on crop, application before weed generation in submerged conditions; settings: Application herbicide amount 320 g/ha; Seventeenth Table
Procedure, shortened: (§2)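 Water-diluted emulsion formulation is applied onto flood water (4 cm deep) covering alluvial soil on the day weed seeds are sown, after transplanting 2.5 leaf stage rice. Rates are expressed per hectare. Injury or control is graded 0–5 three weeks later.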

[5] = test system: Echinochloa oryzacola Vasing.; assay: Test Example 1: herbicidal activity, application before weed generation in submerged conditions; settings: Application herbicide amount 320 g/ha; Seventeenth Table
Procedure, shortened: as §2

Scirpus juncoides [6] = assay: as above; settings: Application herbicide amount 320 g/ha; Seventeenth Table
Procedure, shortened: as §2

Monochoria vaginalis [7] = assay: as above; settings: Application herbicide amount 320 g/ha; Seventeenth Table
Procedure, shortened: as §2

Structure (SMILES)	A (Echinochloa oryzicola Vasing.) herbicidal ratio grade [1]	B (Scirpus juncoides) herbicidal ratio grade (Scirpus juncoides [2])	C (Monochoria vaginalis) herbicidal ratio grade (Monochoria vaginalis [3])	a: transplanted Oryza sativa (effect on crop grade) [4]	A: Echinochloa oryzicola Vasing. (herbicidal effect grade) [5]	B: Scirpus juncoides (herbicidal effect grade) (Scirpus juncoides [6])	C: Monochoria vaginalis (herbicidal effect grade) (Monochoria vaginalis [7])
CC(=O)OCc1nnc2c(C(=O)Nc3nnc(C)o3)ccc(C(F)(F)F)n12 [1-062]	2 (Herbicidal ratio of 20% or more and less than 40%)	2 (Herbicidal ratio of 20% or more and less than 40%)	2 (Herbicidal ratio of 20% or more and less than 40%)	0 (Herbicidal ratio of 5% or less (almost no effect))	3 (Herbicidal ratio of 40% or more and less than 70%)	2 (Herbicidal ratio of 20% or more and less than 40%)	1 (Herbicidal ratio of 5% or more and less than 20%)
COCCSc1nnc2c(C(=O)Nc3nnc(C)o3)ccc(C(F)(F)F)n12 [1-063]	4 (Herbicidal ratio of 70% or more and less than 90%)	3 (Herbicidal ratio of 40% or more and less than 70%)	2 (Herbicidal ratio of 20% or more and less than 40%)	0 (Herbicidal ratio of 5% or less (almost no effect))	5 (Herbicidal ratio of 90% or more (almost completely withered))	4 (Herbicidal ratio of 70% or more and less than 90%)	3 (Herbicidal ratio of 40% or more and less than 70%)
C=CCSc1nnc2c(C(=O)Nc3nnc(C)o3)ccc(C(F)(F)F)n12 [1-064]	2 (Herbicidal ratio of 20% or more and less than 40%)	3 (Herbicidal ratio of 40% or more and less than 70%)	2 (Herbicidal ratio of 20% or more and less than 40%)	0 (Herbicidal ratio of 5% or less (almost no effect))	5 (Herbicidal ratio of 90% or more (almost completely withered))	4 (Herbicidal ratio of 70% or more and less than 90%)	3 (Herbicidal ratio of 40% or more and less than 70%)
CN(C)c1nnc2c(C(=O)Nc3nnco3)ccc(C(F)(F)F)n12 [1-103]	4 (Herbicidal ratio of 70% or more and less than 90%)	5 (Herbicidal ratio of 90% or more (almost completely withered))	4 (Herbicidal ratio of 70% or more and less than 90%)	3 (Herbicidal ratio of 40% or more and less than 70%)	5 (Herbicidal ratio of 90% or more (almost completely withered))	4 (Herbicidal ratio of 70% or more and less than 90%)	4 (Herbicidal ratio of 70% or more and less than 90%)
Cc1nnc(NC(=O)c2ccc(C(F)(F)F)n3c(CC4CC4)nnc23)o1 [1-104]	4 (Herbicidal ratio of 70% or more and less than 90%)	3 (Herbicidal ratio of 40% or more and less than 70%)	3 (Herbicidal ratio of 40% or more and less than 70%)	0 (Herbicidal ratio of 5% or less (almost no effect))	4 (Herbicidal ratio of 70% or more and less than 90%)	3 (Herbicidal ratio of 40% or more and less than 70%)	2 (Herbicidal ratio of 20% or more and less than 40%)
Cc1nnc(NC(=O)c2ccc(C(F)(F)F)n3c(C4(C)CC4(Cl)Cl)nnc23)o1 (stereo not shown) [1-105]	3 (Herbicidal ratio of 40% or more and less than 70%)	4 (Herbicidal ratio of 70% or more and less than 90%)	3 (Herbicidal ratio of 40% or more and less than 70%)	0 (Herbicidal ratio of 5% or less (almost no effect))	5 (Herbicidal ratio of 90% or more (almost completely withered))	5 (Herbicidal ratio of 90% or more (almost completely withered))	4 (Herbicidal ratio of 70% or more and less than 90%)
CCSc1nnc2c(C(=O)Nc3nnco3)ccc(C(F)(F)F)n12 [1-106]	5 (Herbicidal ratio of 90% or more (almost completely withered))	5 (Herbicidal ratio of 90% or more (almost completely withered))	4 (Herbicidal ratio of 70% or more and less than 90%)	1 (Herbicidal ratio of 5% or more and less than 20%)	5 (Herbicidal ratio of 90% or more (almost completely withered))	5 (Herbicidal ratio of 90% or more (almost completely withered))	4 (Herbicidal ratio of 70% or more and less than 90%)
COCCOCc1nnc2c(C(=O)Nc3nnco3)ccc(C(F)(F)F)n12 [1-107]	5 (Herbicidal ratio of 90% or more (almost completely withered))	4 (Herbicidal ratio of 70% or more and less than 90%)	4 (Herbicidal ratio of 70% or more and less than 90%)	2 (Herbicidal ratio of 20% or more and less than 40%)	5 (Herbicidal ratio of 90% or more (almost completely withered))	4 (Herbicidal ratio of 70% or more and less than 90%)	5 (Herbicidal ratio of 90% or more (almost completely withered))
CCCSc1nnc2c(C(=O)Nc3nnco3)ccc(C(F)(F)F)n12 [1-108]	4 (Herbicidal ratio of 70% or more and less than 90%)	4 (Herbicidal ratio of 70% or more and less than 90%)	3 (Herbicidal ratio of 40% or more and less than 70%)	0 (Herbicidal ratio of 5% or less (almost no effect))	5 (Herbicidal ratio of 90% or more (almost completely withered))	5 (Herbicidal ratio of 90% or more (almost completely withered))	5 (Herbicidal ratio of 90% or more (almost completely withered))
COCCNc1nnc2c(C(=O)Nc3nnc(C)o3)ccc(C(F)(F)F)n12 [1-109]	0 (Herbicidal ratio of 5% or less (almost no effect))	1 (Herbicidal ratio of 5% or more and less than 20%)	0 (Herbicidal ratio of 5% or less (almost no effect))	0 (Herbicidal ratio of 5% or less (almost no effect))	0 (Herbicidal ratio of 5% or less (almost no effect))	2 (Herbicidal ratio of 20% or more and less than 40%)	0 (Herbicidal ratio of 5% or less (almost no effect))
O=C(Nc1nnco1)c1ccc(C(F)(F)F)n2c(N3CCOCC3)nnc12 [1-110]	4 (Herbicidal ratio of 70% or more and less than 90%)	3 (Herbicidal ratio of 40% or more and less than 70%)	4 (Herbicidal ratio of 70% or more and less than 90%)	4 (Herbicidal ratio of 70% or more and less than 90%)	5 (Herbicidal ratio of 90% or more (almost completely withered))	4 (Herbicidal ratio of 70% or more and less than 90%)	4 (Herbicidal ratio of 70% or more and less than 90%)
CCOc1nnc2c(C(=O)Nc3nnco3)ccc(C(F)(F)F)n12 [1-112]	1 (Herbicidal ratio of 5% or more and less than 20%)	2 (Herbicidal ratio of 20% or more and less than 40%)	0 (Herbicidal ratio of 5% or less (almost no effect))	0 (Herbicidal ratio of 5% or less (almost no effect))	3 (Herbicidal ratio of 40% or more and less than 70%)	3 (Herbicidal ratio of 40% or more and less than 70%)	2 (Herbicidal ratio of 20% or more and less than 40%)
Cc1nnc(NC(=O)c2ccc(C(F)(F)F)n3c(SCc4ccccc4)nnc23)o1 [1-113]	2 (Herbicidal ratio of 20% or more and less than 40%)	0 (Herbicidal ratio of 5% or less (almost no effect))	0 (Herbicidal ratio of 5% or less (almost no effect))	0 (Herbicidal ratio of 5% or less (almost no effect))	4 (Herbicidal ratio of 70% or more and less than 90%)	3 (Herbicidal ratio of 40% or more and less than 70%)	2 (Herbicidal ratio of 20% or more and less than 40%)
